The target in assay [1] is T1, S100A9 binding to TLR4/MD2 (Homo sapiens, UniProt P06702).
T1 sequence (P06702 1-114): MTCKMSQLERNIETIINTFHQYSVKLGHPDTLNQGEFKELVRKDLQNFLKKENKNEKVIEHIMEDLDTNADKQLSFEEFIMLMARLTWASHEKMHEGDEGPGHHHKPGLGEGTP
The experiment in a line: Surface plasmon resonance (Biacore 3000): inhibition of S100A9 binding to immobilized TLR4. The following applies: 50 nM recombinant human S100A9 over immobilized TLR4; response at late dissociation phase. From the text:
(a) The molecular structure of ABR-238901. (b-c) Surface plasmon resonance measurement of S100A9 binding to immobilized RAGE (b) and TLR4 (c) in the presence of increasing ABR-238901 concentrations. The magnitude of the response for each ABR-238901 concentration (BABR-238901), measured at the late dissociation phase (t 350s), was expressed as percentage of the response in the absence of competitor (BO), and plotted against the concentration of ABR-238901.
Inhibition of S100A9 binding to RAGE and TLR4/MD2 by ABR-238901 was tested by surface plasmon resonance in a Biacore 3000 system (GE Healthcare, Uppsala, Sweden). Briefly, 50 nM of recombinant human S100A9 was injected over immobilized RAGE and TLR4 (2 min at 30 μL/min) in the presence of increasing concentrations of ABR-238901, ranging from 0.0488 to 100 μM. The magnitude of the responses measured at the late dissociation phase (t 350 s) in the presence of ABR-238901 (BABR-238901) were expressed as percentage of response in the absence of competitor (Bo), and plotted against the concentration of ABR-238901 (FIG. 7b-c). The curves were fit to a sigmoidal dose-response model with variable slope in Prism GraphPad for calculation of IC50.
A general note: SPR reads the build-up and loss of mass on a sensor chip optically.

For assay [2], the system named is C57BL/6 mice with MI induced by permanent coronary artery ligation. As to the kind of experiment: MI by permanent coronary artery ligation, short-term (3 days) treatment: echocardiography, MRI, scar, infarct size, TUNEL. Type of assay: in vivo, mouse. The note with it: for Size of the infarction, percentage of the AAR volume, vs PBS: TTC. From the text: (§1) All mouse studies were approved by the Animal Research Ethics Committee of Lund University. C57BL/6NRJ mice were purchased from Janvier Labs, C57BL/6-Tg(Nr4a1-EGFP/cre)820Khog/J (Nur77-EGFP) and B6;D2-Tg(Myh6*-mCherry)2Mik/J (α-MHC-mCherry) were purchased from the Jackson Laboratory. Nur77-EGFP mice express the fluorescent EGFP protein under the Nur77 promoter. α-MHC-mCherry mice express the red fluorescent Cherry protein under the mouse alpha myosin heavy-chain promoter in cardiomyocytes. We used 8-12 weeks old female mice in all experiments. MI was induced by left coronary artery ligation using a minimal thoracotomy model. Mice were initially anesthetized with 4% isoflurane and the surgical procedure was performed under 1.7% isoflurane. Following heart exposure outside of the thorax through a small thoracic incision, the left coronary artery was permanently ligated using silk 6.0 suture, the heart repositioned, and the thorax was closed with 6.0 prolene monofilament suture.
For short-term experiments, a daily dose of 30 mg/Kg ABR-238901 was diluted in PBS and administered by daily i.p. injections for the first 3 days post-MI, starting immediately after ischemia induction (days 0, 1 and 2) (FIG. 1A).
Ultrasound measurements were performed at day −1 (baseline), 7, and 21 to assess cardiac function using a Vevo 770 echocardiographic imaging system with a 707B probe (VisualSonics, Toronto, Canada). In selected experiments, additional assessment was performed on days 3 and 14. The mice were anesthetized using 1-3% isoflurane and hair was carefully removed using depilatory cream. To maintain body temperature, the mice were placed in supine position on a heated surface (37° C.). Two-dimensional M-mode images were recorded in the parasternal short-axis view at the mid-papillary level. Five complete cardiac cycles were traced to calculate fractional shortening, ejection fraction, left ventricular systolic volume, and left ventricular diastolic volume by using the VisualSonics software.
At 21 days after MI, the hearts were perfused with ice cold PBS and excised under ketamine/xylazine anesthesia. Subsequently the hearts were fixed in 4% (w/v) paraformaldehyde and embedded in paraffin. The hearts were sectioned transversely from the apex to the level of the suture, and 6 μm thick sections were collected at 390 μm intervals. The sections were mounted on glass slides and stained with Van Gieson or Masson trichrome stain for quantitative analysis of scar size. Alarmin S100A8/A9 was detected using mouse anti-S100A8/A9 IgG1 antibody (Abcam, ab 130234, 1:100 dilution, O/N 4° C.). Goat anti-mouse IgG1 HRP-conjugated secondary antibody (Abcam, ab 97240, 1 h RT) was used and the staining was developed with ImmPACT™ DAB (Vector, SK-4105) chromogen as substrate. The slides were subsequently scanned using an Aperio digital pathology slide scanner (Leica Biosystems), and images were captured with the ImageScope software (Leica Biosystems). Left ventricle area and the infarcted area were measured on each section by using the BioPix iQ 2.5.0 software (Biopix AB). The size of the post-MI myocardial scar was expressed as percentage of the left ventricle volume below the coronary ligature.
Magnetic resonance measurements were performed on a 9.4 T horizontal magnet (Agilent, Santa Clara, USA) equipped with Bruker BioSpec AVIII electronics operating with ParaVision 6.0.1 (Bruker, Ettlingen, Germany). The experiments were conducted under general anaesthesia using a mixture of isoflurane (2%) and 98% O2 via a nose cone. Rectal temperature, ECG signal, and breathing rate were monitored throughout the measurements (SA instruments, Stony Brook, USA). During the experiment, the mouse was positioned prone in an animal holder and kept warm to maintain constant body temperature at 36-37° C. ECG and respiration triggered FLASH sequence was used to acquire cinematographic MR image series of the beating heart. […]

Assay [3] deals with α-MHC-mCherry mice with MI. The experiment in a line: Efferocytosis of mCherry+ cardiomyocytes by heart macrophages, 7 days post-MI. It is filed as in vivo, mouse. The note with it: treatment for 7 days post-MI.
Excerpt: as §1
In an attempt to explain these intriguing results, we assessed the effects of the extended treatment on the presence of myeloid cells in blood, spleen, bone marrow and myocardium, with particular emphasis on cellular populations involved in myocardial repair. The cellular infiltration was analysed by flow cytometry on day 7, at the peak of the reparatory post-MI period. […]

Setting [4] is: 3 days treatment, MR, not statistically significant.

The record followed here is patent publication US20220378763A1, “COMPOUND FOR TREATMENT OF ACUTE INFLAMMATION IN THE MYOCARDIUM” (CALPROTECT AB, priority 2019, published 2022).

On to `COc1ncc(S(=O)(=O)Nc2cncc(Cl)c2O)cc1Br` [ABR-238901, 5-bromo-N-(5-chloro-4-hydroxypyridin-3-yl)-6-methoxypyridine-3-sulfonamide], for which, in assay [1], the concentration for half-maximal inhibition (IC50) (in general, the midpoint of a concentration-inhibition curve) amounted to 2100 nM. Moreover, the “Left ventricular EF, average” value in assay [2] (30 mg/Kg i.p. at 0, 24, 48 h, echocardiography, day 21) turned out to be 36%. In addition, in assay [2] (30 mg/Kg i.p. at 0, 24, 48 h, echocardiography, days 3, 7, 21), the “Left ventricular EF vs PBS-treated controls” value was “higher throughout the follow-up period”. In addition, the “Increase in cardiac output from day 3 to day 21” value in assay [2] (3 days treatment, MR) is “approximately 30%”. Besides, the “Cardiac output (CO)” value in assay [2] (3 days treatment, MR, day 3) was determined as 8.1 mL/min; in assay [2] (3 days treatment, MR, day 21), 10.4 mL/min. For the same compound, the “Left ventricular EF” value was 29% in assay [2] (3 days treatment, MR, day 3); 25% in assay [2] (3 days treatment, MR, day 7); 26% in assay [2] (3 days treatment, MR, day 21). Also, in assay [2] (setting [4]), the “EDV vs PBS-treated MI group” value is given as “tendency towards lower”. Also, the “ESV vs PBS-treated MI group” value in assay [2] (setting [4]) was “tendency towards lower”. Further, the “Size of the infarction, percentage of the AAR volume, vs PBS” value is recorded as “smaller” in assay [2] (3 days treatment, day 3 post-MI) and “smaller” in assay [2] (3 days treatment, day 7 post-MI). For the same compound, in assay [2] (3 days treatment, day 21, Van Gieson staining), the “Average myocardial scar size vs controls” value is “tendency towards smaller”. In assay [2] (day 3 post-MI), the “Percentage of apoptotic cells in the myocardium (TUNEL)” value is on record as “significantly reduced”. The “Reduction of the number of macrophages having phagocytosed mCherry+ cardiomyocytes” value in assay [3] is on record as “approximately 50%”. Further, in assay [3], the “mCherry mean fluorescent intensity (MFI) in MerTKhi and MerTKlo macrophages” value is given as “did not affect”.
